According to patent US9850283B2, “Macrocyclic inhibitors of the PD-1/PD-L1 and CD80(B7-1)/PD-L1 protein/protein interactions” (BRISTOL-MYERS SQUIBB COMPANY, priority 2013, dated 2017):
Like-named read-outs stand apart in the source and are kept apart here. Positions of bridges follow the written chain, without caps; N, C: chain ends. Non-standard residues stand in square brackets, D forms with d. Residues, ends and D or L forms follow the SMILES beside them. ξ: configuration not given here. NMeNle = CCCC[C@H](NC)C(=O)O; NMeA = CN[C@@H](C)C(=O)O; ξP = O=C(O)C1CCCN1

Columns and labels:
Hu PD-L1/PD-1 = Hu PD-L1/PD-1 (Homo sapiens, UniProt Q9NZQ7); test: Cell binding assay Hu PD-L1/PD-1 (Tables 11-13, cell line not given); assay type: cell-based; settings: Table 11
Chain of Hu PD-L1/PD-1 (Q9NZQ7 19-290): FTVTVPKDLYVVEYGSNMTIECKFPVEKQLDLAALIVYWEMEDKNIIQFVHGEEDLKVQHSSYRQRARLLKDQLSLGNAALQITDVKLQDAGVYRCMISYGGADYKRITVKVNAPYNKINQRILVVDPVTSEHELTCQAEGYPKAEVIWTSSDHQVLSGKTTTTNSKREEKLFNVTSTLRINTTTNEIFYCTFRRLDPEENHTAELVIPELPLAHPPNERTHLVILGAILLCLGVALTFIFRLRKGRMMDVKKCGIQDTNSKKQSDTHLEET
Summary of the method: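 Three formats. In the L2987 imaging assay, natively PD-L1-expressing cells received inhibitor and PE-PD-1-Ig for 1 h at 37 °C, followed by fixation and nuclear Hoechst staining. In the flow-cytometry assays, LK35.2 cells overexpressing hPD-L1 were pre-treated 15 min with inhibitor, then bound 2 nM PE-PD-1-Ig for 1 h at RT in RPMI/2% FCS, while Jurkat-PD-1 cells bound PE-PD-L1-Ig.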

CMV-specific T cells = settings: read-out: EC50, IFNγ secretion by CMV-specific T cells; FIG. 10A-C
Human PD-L1/PD-1 = target: T1, Human PD-L1/PD-1 (Homo sapiens, UniProt Q9NZQ7); test: HTRF PD-1-Ig/PD-L1-His binding assay (human PD-L1); settings: read-out: HTRF Human PD-L1/PD-1 Binding Assay IC50
T1 construct: made in house; host or cells: HEK293T
T1 sequence (Q9NZQ7 with tags, fused parts or gaps): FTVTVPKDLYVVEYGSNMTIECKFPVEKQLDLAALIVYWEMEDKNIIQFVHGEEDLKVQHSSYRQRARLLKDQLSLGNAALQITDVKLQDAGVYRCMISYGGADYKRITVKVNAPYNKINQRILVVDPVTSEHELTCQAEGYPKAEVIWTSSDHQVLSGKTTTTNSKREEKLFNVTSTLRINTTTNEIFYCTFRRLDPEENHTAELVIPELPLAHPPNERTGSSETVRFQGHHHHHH
Summary of the method: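 Soluble PD-1-Ig binding to PD-L1-His measured by HTRF in dPBS with 0.1% BSA and 0.05% Tween-20. Detection used europium cryptate anti-Ig antibody (1 nM final) and APC anti-His antibody (20 nM final) added on top of the binding reaction.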

| Structure (SMILES) | IC50 (Hu PD-L1/PD-1) | EC50 (CMV-specific T cells) | IC50 (Human PD-L1/PD-1; Table 6) | IC50 (Human PD-L1/PD-1; Table 9, Compound No. 71 variant macrocyclic peptides) |
| --- | --- | --- | --- | --- |
| CCCC[C@H]1C(=O)N(C)[C@@H](CCCC)C(=O)N[C@@H](CC(C)C)C(=O)N[C@H](C(=O)NCC(N)=O)CSCC(=O)N[C@@H](Cc2ccccc2)C(=O)N(C)[C@@H](C)C(=O)N[C@@H](CC(N)=O)C(=O)N2CCCC2C(=O)N[C@@H](Cc2cnc[nH]2)C(=O)N[C@@H](Cc2c[nH]cn2)C(=O)N[C@@H](CO)C(=O)N[C@@H](Cc2c[nH]c3ccccc23)C(=O)N[C@@H](CCCNC(=N)N)C(=O)N[C@@H](Cc2c[nH]c3ccccc23)C(=O)N1C (stereo partly drawn) [Compound No. 2] ({CH2CO}-F[NMeA]N[ξP]HHSWRW[NMeNle][NMeNle]LCG-NH2; thioether N-14) | 43 nM | 400 nM | – | – |
| CCCC[C@H]1C(=O)N(C)CC(=O)N[C@@H](CC(=O)O)C(=O)N[C@@H](C(C)C)C(=O)N(C)[C@@H](Cc2ccccc2)C(=O)N[C@@H](Cc2ccc(O)cc2)C(=O)N(C)CC(=O)N[C@@H](Cc2c[nH]c3ccccc23)C(=O)N[C@@H](Cc2ccc(O)cc2)C(=O)N[C@@H](CC(C)C)C(=O)N[C@H](C(=O)NCC(N)=O)CSCC(=O)N[C@@H](Cc2ccccc2)C(=O)N(C)[C@@H](Cc2ccccc2)C(=O)N1C [Compound No. 71] (HELM PEPTIDE1{[O=C(C[*:3])[*:2]].F.[meF].[CCCC[C@@H](C(=O)[*:2])N(C)[*:1]].[Sar].D.V.[meF].Y.[Sar].W.Y.L.C.G.[am]}$PEPTIDE1,PEPTIDE1,1:R3-14:R3$$$V2.0) | 10 nM | 300 nM | 7 nM | 7 nM |
